The subject of assay [1] is Normal human head hair papilla cells. In words: Test for hair papilla cell growth promoting action (MTT assay). To be noted: for Hair papilla cell growth promotion rate (%): 4 days, control = 100. The format is cell-based. The protocol:
Normal human head hair papilla cells were cultured using a papilla cell growth medium (Cell Application Inc.) containing 2% fetal bovine serum (FBS) and proliferation additives, then the cells were retrieved by trypsinization. The retrieved cells were diluted to a cell concentration of 1.0×10^4 cells/ml using a DMEM medium containing 10% FBS, after which the cells were inoculated in a collagen-coated 96-well plate, at a rate of 200 μl per well, followed by incubation for 3 days. After incubation, the medium was removed and then to the wells there were added 200 μl each of a sample solution in which a respective sample had been dissolved in serum-free DMEM. The wells were then incubated for a further 4 days.
Once incubation was over, the medium was removed, and then to the wells there was added 100 μl each of MTT dissolved in serum-free DMEM (final concentration 0.4 mg/ml). After 2 hours of incubation, the blue formazan formed inside the cells was extracted with 100 μl of 2-propanol. The absorbance of the extracts was measured at a 570 nm wavelength. Turbidity was measured at the same time, as absorbance at the 650 nm wavelength. The amount of blue formazan formed was taken as the difference between the two absorbances. As a control, the same measurements were carried out for specimens in which serum-less DMEM was added instead of the sample solutions. The hair papilla cell growth promotion rate (%) was calculated from the obtained results using the formula below. Hair papilla cell growth promotion rate(%)=A/B×100
In the formula, A represents “absorbance upon sample addition”, and B represents “absorbance without sample addition”.

Assay [2] relates to FGF-7 gene. As to the kind of experiment: FGF-7 mRNA expression promotion in HFDPC (RT-PCR). The format is cell-based, human. Conditions: for mRNA expression promotion rate (%) FGF-7 mRNA: HFDPC, corrected by G3PDH, control = 100. The method, then:
(§1) The FGF-7 growth promoting action, VEGF growth promoting action and BMP-2 growth promoting action of the corosolic acid obtained in producing examples 1 and 2 (samples 1 and 2) were tested as follows.
(§2) Human hair follicle dermal papilla cells (HFDPC) were cultured using a human hair follicle dermal papilla cells growth medium (PCGM), then the cells were retrieved by trypsinization. The retrieved cells were diluted to a cell concentration of 2×10^5 cells/ml using a DMEM medium containing 10% FBS, after which the cells were inoculated in 60 mm-diameter Petri dishes, at a rate of 5 ml, followed by incubation overnight.
(§3) Once incubation was over, the cells were changed to a serum-less DMEM medium to which the samples (sample 1 and 2) had been added after two-hour incubation, then the cells were dissolved in 1 ml of a reagent for RNA extraction (TRIzol, Invitrogen Corporation). After addition of 200 μl of chloroform to the solutions, these were centrifuged (12000 rpm, 4° C., 15 minutes) and the top RNA layer was isolated. The RNA layer was concentrated in isopropanol. The total RNA concentrated and precipitated was dissolved in a TE solution (10 mM Tris-HCl/1 mM EDTA, pH 8.0), and was taken as a total RNA standard (sequence numbers 1 to 3) used in a template of quantitative RT-PCR for measuring the mRNA expression level of the FGF-7 gene, the VEGF gene and the BMP-2 gene. […]
(§4) After synthesizing single-strand DNA from 500 ng of total RNA in a PCR apparatus (TaKaRa PCR Thermal Cycler MP, TAKARA BIO INC.), the FGF-7 gene (sequence no. 4), the VEGF gene (sequence no. 5), the BMP-2 gene (sequence no. 6), and the G3PDH gene as an internal standard were amplified by PCR reaction, from the single-strand DNA, using specific sense primers (sequence nos. 7 to 9) and antisense primers (sequence nos. 10 to 12) of the respective genes, then 10 μl of the amplified product were electrophoresed on 1.2% agarose gel. […] Then the RT-PCR products were quantitatively measured using KODAK 1D Image Analysis Software EDAS290 Version3.5. […]

Assay [3] deals with BMP-2 gene. As to the kind of experiment: BMP-2 mRNA expression promotion in HFDPC (RT-PCR). It counts as cell-based, human. Conditions: for mRNA expression promotion rate (%) BMP-2 mRNA: HFDPC, corrected by G3PDH, control = 100. The protocol: as §1, §2, §3, §4
Assay [4] deals with VEGF gene. As to the kind of experiment: VEGF mRNA expression promotion in HFDPC (RT-PCR). To be noted: for mRNA expression promotion rate (%) VEGF mRNA: HFDPC, corrected by G3PDH, control = 100. It counts as cell-based, human. The protocol:
as §1, §2, §3, §4

The target of assay [5] is T1, testosterone 5α-reductase (Rattus norvegicus, UniProt P24008).
T1 construct: 75 μl of S-9 (rat liver homogenate, Oriental Yeast Co., Ltd.); tissue Oriental Yeast Co., Ltd; host or cells: rat liver S-9 homogenate
T1 sequence (P24008 1-259): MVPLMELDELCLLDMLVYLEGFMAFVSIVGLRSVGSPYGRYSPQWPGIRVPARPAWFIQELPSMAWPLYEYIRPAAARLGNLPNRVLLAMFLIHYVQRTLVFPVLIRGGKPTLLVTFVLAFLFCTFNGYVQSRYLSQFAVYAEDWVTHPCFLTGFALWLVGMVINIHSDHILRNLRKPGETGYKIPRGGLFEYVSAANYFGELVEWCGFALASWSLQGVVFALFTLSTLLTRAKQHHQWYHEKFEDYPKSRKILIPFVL
In words: Test for testosterone 5α-reductase inhibiting action (S-9 rat liver homogenate, GC quantification). It counts as biochemical.

[6] abbreviates: sample concentration 0.06 μg/ml.
[7] abbreviates: sample concentration 0.25 μg/ml.

In the case of `C[C@H]1[C@H](C)CC[C@]2(C(=O)O)CC[C@]3(C)C(=CC[C@@H]4[C@@]5(C)C[C@@H](O)[C@H](O)C(C)(C)[C@@H]5CC[C@]43C)[C@H]12` [Sample 1, corosolic acid], the “hair papilla cell growth promoting action (in words)” value in assay [1] (conclusion from Table 2) is reported as “hair papilla cell growth promoting action”. In addition, the “Hair papilla cell growth promotion rate (%)” value was 111.5 ± 2.2% in assay [1] (sample concentration 1.56 μg/ml) and 106.1 ± 1.4% in assay [1] (sample concentration 6.25 μg/ml). The “promotion of mRNA expression of the FGF-7 gene (in words)” value in assay [2] (conclusion from Table 3) is recorded as “promote the mRNA expression”. For the same compound, the results for the “mRNA expression promotion rate (%) FGF-7 mRNA” value in assay [2] (setting [6]) and in assay [2] (setting [7]) were 122.9 ± 8.5% and 124.8 ± 7.2%, respectively. For the same compound, the “promotion of mRNA expression of the BMP-2 gene (in words)” value in assay [3] (conclusion from Table 3) was “promote the mRNA expression”. In addition, the entries for the “mRNA expression promotion rate (%) BMP-2 mRNA” value in assay [3] (setting [6]) and in assay [3] (setting [7]) were 105.3 ± 3.8% and 135.3 ± 5.5%, respectively. The “promotion of mRNA expression of the VEGF gene (in words)” value in assay [4] (conclusion from Table 3) is listed as “promote the mRNA expression”. The “mRNA expression promotion rate (%) VEGF mRNA” value in assay [4] (setting [6]) stood at 121.8 ± 3.5%; in assay [4] (setting [7]), 106.7 ± 4.5%. For the same compound, the IC50 in assay [5] (S-9 rat liver homogenate, 37° C., 30 minutes, by interpolation, read-out: IC50 (sample concentration at which the inhibition rate of testosterone 5α-reductase is 50%) (converted)) was 1.18 mM. The “testosterone 5α-reductase inhibiting action (in words)” value in assay [5] (conclusion from Table 1) is “excellent testosterone 5α-reductase inhibiting action”.

(Values after patent US7910557B2, “Hair care product” (Maruzen Pharmaceuticals Co., Ltd., priority 2005, dated 2011).)
